In patent US20250346643A1, “TROPOMYOSIN KINASE RECEPTOR (TRK) LIGANDS AS THERAPEUTICS TO SUPPORT LIVER REGENERATION” (Vanderbilt University, priority 2024, published 2025):

Legend:
[1] = system: P-TRKA Tyr674/675, P-TRKB Tyr706/707; assay: Western blot of phosphorylated TRK in HepG2 cell lysates; type: cell-based, human; settings: HepG2, Loxo-195 added to NTF3
Procedure: Human HepG2 and mouse AML12 cells were grown in 6-well plates. […] Lyophilized NTF3 was solubilized with sterile filtered PBS supplemented with 0.1% BSA, aliquoted and stored at −80° C. until use. […] Cell lysates were sonicated and centrifuged for 10 min at 18,800×g. Protein concentration of supernatants were determined by Direct Detect Spectrophotometer (MilliporeSigma, Burlington, MA).
(§1) For immunoblot analysis, 30-50 μg of protein diluted in LSD sample buffer (Invitrogen, Waltham, MA) were analyzed per SDS-PAGE (NuPAGE™, Invitrogen, Waltham, MA) using MOPS buffer or MES buffer (Invitrogen, Waltham, MA). Gels were stained with Coomassie (Bio-Safe Coomassie G-250 Stain, Bio-Rad, Hercules, CA) and transferred onto PVDF membranes using semi-dry blotting (Trans-Blot SD, Bio-Rad, Hercules, CA). Images were visualized on an Amersham™ Imager 680 (Cytiva, Marlborough, MA).

AML12 cells = assay: Cell proliferation assay (CellTiter-Glo) in AML12 cells; type: cell-based, mouse; settings: Loxo-195 final concentration 5 nM, AML12
Procedure: (§2) Cell lines. Human HepG2 (ATCC HB-8065) were maintained in MEM media with 10% FBS and the mouse hepatocyte cell line AML12 (ATCC, Manassas, VA; CRL-2254) in DMEM/F12 media supplemented with dexamethasone (40 ng/ml) and Insulin-Transferrin-Selenium (Gibco, Waltham, MA; 41400045), containing 10% FBS and 1% penicillin and streptomycin. JS1 (RRID: CVCL_C7PL), LX2 (RRID: CVCL_5792, MilliporeSigma, Burlington, MA; SCC064) and TWNT4 (RRID: CVCL_W296) cells were cultured in DMEM supplemented with 10% FBS. 293T cells (ATCC, Manassas, VA; CRL-3216) were cultured in DMEM supplemented with 10% FBS.
(§3) Cell proliferation assays. Primary mouse hepatocytes, HepG2 or AML 12 cells were grown in opaque-walled 96-well plates. NTF3 (final concentration 20 ng/ml) (STEMCELL Technologies, Vancouver, Canada; cat. 78074) and/or Loxo-195 (final concentration 5 nM) (Selleckchem, Houston, TX; S8636) were added into complete growth media without L-glutamine. Primary mouse hepatocytes were also grown in serum-free William's E media without supplements. Cells were analyzed by CellTiter-Glo® (Promega G7570, Madison, WI) which detects the number of viable cells on day 0 to day 5 by on detection systems GloMax® (Promega) or Bioteck Synergy H1 (Agilent, Santa Clara, CA). Mouse recombinant HGF (Abcam, Cambridge, UK; ab281797) was added to cell culture media at a final concentration 5 ng/ml. […]

CCND1 = assay: Western blot of CCND1 in HepG2 cell lysates; type: cell-based, human; settings: HepG2, Loxo-195 5-10 nM added to NTF3
Procedure: Human HepG2 and mouse AML12 cells were grown in 6-well plates. Cells were treated with NTF3 (20 ng/ml) purchased from STEMCELL technologies, Vancouver, Canada (cat. 78074), R&D Systems, Minneapolis, MN (267-N3), Gibco, Waltham, MA (PHC7036) and/or Loxo-195 (5-10 nM) (Selleckchem, Houston, TX; S8636) in complete growth media without L-glutamine for 2 hours. Lyophilized NTF3 was solubilized with sterile filtered PBS supplemented with 0.1% BSA, aliquoted and stored at −80° C. until use. […] HepG2 and AML12 cells were collected on ice in PBS, centrifuged for 10 sec […] cell pellet homogenized in RIPA buffer containing inhibitors (Roche, Basel, Switzerland; complete Mini proteinase inhibitor, 1×HALT phosphatase inhibitors, Thermo Scientific, Waltham, MA; cat. 78428). Cell lysates were sonicated and centrifuged for 10 min at 18,800×g. Protein concentration of supernatants were determined by Direct Detect Spectrophotometer (MilliporeSigma, Burlington, MA).
as §1, with “Marlborough, MA). Semi-quantitative band densitometry was performed using ImageJ software (version 1.53).” for “Marlborough, MA).”

HepG2 cells = assay: Cell proliferation assay (CellTiter-Glo) in HepG2 cells; type: cell-based, human; settings: Loxo-195 final concentration 5 nM, HepG2
Procedure: as §2, §3

In the case of `C[C@@H]1CCc2ncc(F)cc2[C@H]2CCCN2c2ccn3ncc(c3n2)C(=O)N1` [Loxo-195, reference compound], the “effect on NTF3-induced TRK phosphorylation” value [1] is reported as “decreased”, the “inhibition of NTF3-induced proliferation” value (AML12 cells) is reported as “significantly inhibited proliferation” and the “effect on NTF3-induced CCND1 abundance” value (CCND1) is reported as “inhibited”. The “inhibition of NTF3-induced proliferation” value (HepG2 cells) was “significantly inhibited proliferation”.
